# Test system: myocardial cell/bone marrow cell co-culture system
# Assay: Cell fusion in myocardial cell/bone marrow cell co-culture, fused cells (MF20- and EGFP-positive) counted by flow cytometry
# Format: cell-based, rat
# Description: From a 1- to 2-day-old Wistar-Kyoto rat, the heart was removed, and myocardial cells were isolated therefrom and cultured. Bone marrow mononuclear cells separated from the bone marrow of an EGFP (enhanced green fluorescent protein) transgenic rat were introduced into the myocardial cells, followed by co-culture thereof.
# Flow cytometry was used to quantitatively determine the number of these fused cells. The cells were fixed with paraformaldehyde in the same manner as above, then fluorescence-immunostained in a suspended state with primary antibody MF20, a biotin-conjugated anti-mouse antibody as secondary antibody and a streptavidin/PerCP-cye5.5 conjugate as tertiary antibody, and analyzed by flow cytometry. 50,000 cells were analyzed for each analysis. […] The cells in the gate R4 in FIG. 2 (D) were confirmed to be fused cells positive to both MF20 and EGFP.
# Then, according to a similar manner to that described above, ATP was added at a concentration of 0 mM (control), 1 mM, 2 mM and 3 mM respectively to the myocardial cell/bone marrow cell co-culture system, and the number of fused cells was examined. Each group at the predetermined concentration of ATP was stained in the same manner as in FIG. 2 and analyzed by flow cytometry. The results are shown in the graphs in FIGS. 3A-D.
# The result is shown in the graph in FIG. 4. In FIG. 4, the ratio (%) of the number of fused cells to the total number of cells is shown on the ordinate, and the concentration of ATP (0 mM, 1 mM, 2 mM and 3 mM) is shown on the abscissa. The asterisk (*) in FIG. 4 indicates significance (p<0.05) relative to the control group. As a result, it was confirmed that only about 0.1% fused cells were formed in the control group in the absence of ATP, while about 0.5% fused cells that are about 5-times as much as in the control group were formed in the group to which 1 or 2 mM ATP had been added.
# According to the method of Minamino et al. (Minamino T., Gaussin V., DeMayo F. J., et al., Circ. Res. 2001; 88:587-592), the heart was removed from a 1- to 2-day-old Wistar-Kyoto rat and myocardial cells were isolated. […]
# Then, the number of the fused cells was quantitatively determined by flow cytometry. After 1 week of co-culture, the cells were treated with trypsin and fixed with paraformaldehyde in the same manner as above, fluorescence-immunostained in a suspended state with primary antibody MF20 (labeled with PerCP-cye5.5 and captured as being positive to FL-3), biotin-conjugated anti-mouse Ig's antibody (BD Pharmingen) as secondary antibody, and streptavidin/PerCP-cye5.5 conjugate (BD Pharmingen) as tertiary antibody, and analyzed by flow cytometry. 50,000 cells were analyzed for each analysis. […]
structure (smiles),measurement,setting,value
"Nc1ncnc2c1ncn2[C@@H]1O[C@H](COP(=O)(O)OP(=O)(O)OP(=O)(O)O)[C@@H](O)[C@H]1O [ATP, adenosine 5′-triphosphate]",number of the fused cells compared with the control group (in words),"1 mM or 2 mM ATP added, flow cytometry, 50,000 cells analyzed",higher than in the control group
same,fused cells relative to the control group (times as much),1 or 2 mM ATP added vs control in the absence of ATP,about 5 times
same,ratio (%) of the number of fused cells to the total number of cells,"1 or 2 mM ATP added, 1 week of co-culture, control without ATP about 0.1%",about 0.5%
same,ratio of the number of fused cells as compared with the control group (in words),"1 or 2 mM ATP added, p<0.05 relative to the control group",increased significantly
